Assay [1] deals with Coagulation factor X (Homo sapiens, UniProt P00742). In words: Inhibition of factor 10a (unknown origin) using Ac-QRSRpNA as substrate incubated for 30 mins measured for 7 mins by morrison plot analysis.
The target in assay [2] is Prothrombin (Homo sapiens, UniProt P00734). The assay can be described thus: Inhibition of thrombin (unknown origin) using Ac-ATPRpNA as substrate incubated for 30 mins measured for 7 mins by morrison plot analysis.
Assay [3] concerns the target Urokinase-type plasminogen activator (Homo sapiens, UniProt P00749). The assay can be described thus: Inhibition of uPA (unknown origin) incubated for 30 mins measured for 7 mins by morrison plot analysis.
For assay [4], the target named is T1, Coagulation factor XII (Homo sapiens, UniProt P00748).
T1 sequence (P00748 whole entry): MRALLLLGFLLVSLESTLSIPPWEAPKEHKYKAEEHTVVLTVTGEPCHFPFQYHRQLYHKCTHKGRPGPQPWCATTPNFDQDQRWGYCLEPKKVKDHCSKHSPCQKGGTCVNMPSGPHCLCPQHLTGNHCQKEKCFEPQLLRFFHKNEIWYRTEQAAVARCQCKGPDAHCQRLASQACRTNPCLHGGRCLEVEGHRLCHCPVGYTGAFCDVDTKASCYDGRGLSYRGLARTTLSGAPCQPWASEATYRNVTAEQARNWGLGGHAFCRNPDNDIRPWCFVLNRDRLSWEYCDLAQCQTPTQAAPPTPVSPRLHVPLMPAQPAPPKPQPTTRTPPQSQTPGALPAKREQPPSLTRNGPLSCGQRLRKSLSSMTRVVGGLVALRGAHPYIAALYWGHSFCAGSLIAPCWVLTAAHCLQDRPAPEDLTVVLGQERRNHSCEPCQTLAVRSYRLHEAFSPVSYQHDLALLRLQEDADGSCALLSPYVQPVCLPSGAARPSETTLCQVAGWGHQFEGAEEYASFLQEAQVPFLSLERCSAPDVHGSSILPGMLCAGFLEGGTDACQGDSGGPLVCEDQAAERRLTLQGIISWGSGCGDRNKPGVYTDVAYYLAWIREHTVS
In words: Inhibition of factor 12a (unknown origin) using Ac-QRFRpNA as substrate incubated for 30 mins measured for 7 mins by morrison plot analysis.

Assay [5] has as its target Coagulation factor IX (Homo sapiens, UniProt P00740). The assay can be described thus: Inhibition of factor 9a (unknown origin) using Ac-QGRpNA as substrate incubated for 30 mins measured for 7 mins by morrison plot analysis.
The target of assay [6] is Coagulation factor XI (Homo sapiens, UniProt P03951). In words: Inhibition of factor 11a (unknown origin) using Bz-FVRpNA as substrate incubated for 30 mins measured for 7 mins by morrison plot analysis.
Assay [7] concerns the target Plasminogen (Homo sapiens, UniProt P00747). In words: Inhibition of plasmin (unknown origin) using Ac-RM(O2)YRpNA as substrate incubated for 30 mins measured for 7 mins by morrison plot analysis.
Assay [8] concerns the target Trypsin (Homo sapiens, UniProt P07477+P07478+P35030). In words: Inhibition of trypsin (unknown origin) using Bz-FVRpNA as substrate incubated for 30 mins measured for 7 mins by morrison plot analysis. The class given is protein assay.
In assay [9] the target is Plasma kallikrein (Homo sapiens, UniProt P03952). The assay can be described thus: Inhibition of human plasma kallikrein using Ac-RM(O2)YRpNA as substrate incubated for 30 mins measured for 7 mins by morrison plot analysis.
The target of assay [10] is Tissue-type plasminogen activator (Homo sapiens, UniProt P00750). In words: Inhibition of tPA (unknown origin) incubated for 30 mins measured for 7 mins by morrison plot analysis.
Chain of Tissue-type plasminogen activator (P00750 whole entry): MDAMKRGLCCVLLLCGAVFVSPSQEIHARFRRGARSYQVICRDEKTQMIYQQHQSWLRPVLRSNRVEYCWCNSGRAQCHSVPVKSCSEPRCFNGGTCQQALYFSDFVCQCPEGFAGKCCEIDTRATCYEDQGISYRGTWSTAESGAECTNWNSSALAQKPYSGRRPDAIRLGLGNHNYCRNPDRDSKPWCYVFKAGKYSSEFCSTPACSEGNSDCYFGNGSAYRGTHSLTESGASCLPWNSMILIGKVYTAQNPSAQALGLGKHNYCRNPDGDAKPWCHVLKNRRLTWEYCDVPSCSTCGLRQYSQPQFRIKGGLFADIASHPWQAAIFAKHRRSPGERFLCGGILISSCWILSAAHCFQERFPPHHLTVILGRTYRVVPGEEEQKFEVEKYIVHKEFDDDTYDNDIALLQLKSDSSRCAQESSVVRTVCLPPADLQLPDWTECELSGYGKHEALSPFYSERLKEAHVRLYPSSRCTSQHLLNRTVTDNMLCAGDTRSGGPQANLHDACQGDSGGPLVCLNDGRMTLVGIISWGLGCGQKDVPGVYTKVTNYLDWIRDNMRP

Chain of Plasma kallikrein (P03952 20-390 limits assumed): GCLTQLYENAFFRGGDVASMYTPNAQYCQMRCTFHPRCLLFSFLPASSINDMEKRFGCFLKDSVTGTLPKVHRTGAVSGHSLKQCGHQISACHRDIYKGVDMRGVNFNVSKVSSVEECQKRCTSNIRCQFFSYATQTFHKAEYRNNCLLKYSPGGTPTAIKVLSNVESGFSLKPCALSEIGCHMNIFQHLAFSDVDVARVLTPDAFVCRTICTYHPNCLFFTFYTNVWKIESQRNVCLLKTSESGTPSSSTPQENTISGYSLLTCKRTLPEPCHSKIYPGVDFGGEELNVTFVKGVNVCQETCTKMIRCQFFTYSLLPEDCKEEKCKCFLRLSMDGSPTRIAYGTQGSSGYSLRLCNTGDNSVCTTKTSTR
Chain of Plasma kallikrein (P03952 391-638 limits assumed): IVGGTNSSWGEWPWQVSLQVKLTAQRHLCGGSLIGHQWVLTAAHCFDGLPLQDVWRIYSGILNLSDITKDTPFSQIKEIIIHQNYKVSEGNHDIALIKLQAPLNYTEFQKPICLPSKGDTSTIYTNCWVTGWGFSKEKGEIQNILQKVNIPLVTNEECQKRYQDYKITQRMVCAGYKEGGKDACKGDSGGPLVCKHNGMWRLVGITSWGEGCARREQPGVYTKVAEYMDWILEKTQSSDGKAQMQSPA
Chain of Plasminogen (P00747 97-580 limits assumed): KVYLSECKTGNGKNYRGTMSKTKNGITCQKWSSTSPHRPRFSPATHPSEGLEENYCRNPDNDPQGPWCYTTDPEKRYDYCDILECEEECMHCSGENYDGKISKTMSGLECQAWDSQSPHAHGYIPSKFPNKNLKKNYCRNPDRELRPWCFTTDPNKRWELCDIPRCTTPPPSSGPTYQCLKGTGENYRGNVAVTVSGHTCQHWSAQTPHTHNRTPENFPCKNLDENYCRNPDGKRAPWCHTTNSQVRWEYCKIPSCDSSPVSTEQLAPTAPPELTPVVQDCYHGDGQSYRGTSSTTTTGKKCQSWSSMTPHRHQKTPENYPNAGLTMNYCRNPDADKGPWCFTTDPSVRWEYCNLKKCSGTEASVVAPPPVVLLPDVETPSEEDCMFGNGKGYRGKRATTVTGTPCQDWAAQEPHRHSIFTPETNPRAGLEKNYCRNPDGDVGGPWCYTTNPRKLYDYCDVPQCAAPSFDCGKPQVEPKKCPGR
Chain of Plasminogen (P00747 581-810 limits assumed): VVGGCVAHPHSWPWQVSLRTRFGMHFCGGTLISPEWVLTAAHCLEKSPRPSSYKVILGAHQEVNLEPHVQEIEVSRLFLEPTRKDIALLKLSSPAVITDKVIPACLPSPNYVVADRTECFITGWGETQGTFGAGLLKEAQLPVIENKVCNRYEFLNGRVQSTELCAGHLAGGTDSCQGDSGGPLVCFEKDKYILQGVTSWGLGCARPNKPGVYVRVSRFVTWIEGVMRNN
Chain of Coagulation factor XI (P03951 19-387 limits assumed): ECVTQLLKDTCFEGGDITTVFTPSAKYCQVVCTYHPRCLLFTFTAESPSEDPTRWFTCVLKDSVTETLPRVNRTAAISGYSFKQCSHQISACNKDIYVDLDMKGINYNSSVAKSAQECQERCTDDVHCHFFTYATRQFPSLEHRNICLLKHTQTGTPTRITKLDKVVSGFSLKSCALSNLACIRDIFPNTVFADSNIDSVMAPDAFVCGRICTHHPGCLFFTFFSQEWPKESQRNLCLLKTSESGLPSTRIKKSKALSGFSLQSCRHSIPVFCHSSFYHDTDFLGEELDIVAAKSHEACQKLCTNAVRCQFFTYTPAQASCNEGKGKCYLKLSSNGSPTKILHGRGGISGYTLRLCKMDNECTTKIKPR
Chain of Coagulation factor XI (P03951 388-625 limits assumed): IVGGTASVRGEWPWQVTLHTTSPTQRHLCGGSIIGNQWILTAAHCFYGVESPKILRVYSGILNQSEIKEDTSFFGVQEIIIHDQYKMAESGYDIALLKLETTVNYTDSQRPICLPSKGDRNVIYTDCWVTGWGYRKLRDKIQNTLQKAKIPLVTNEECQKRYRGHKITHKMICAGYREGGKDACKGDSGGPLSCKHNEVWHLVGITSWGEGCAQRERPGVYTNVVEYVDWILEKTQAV
Chain of Coagulation factor IX (P00740 47-191 limits assumed): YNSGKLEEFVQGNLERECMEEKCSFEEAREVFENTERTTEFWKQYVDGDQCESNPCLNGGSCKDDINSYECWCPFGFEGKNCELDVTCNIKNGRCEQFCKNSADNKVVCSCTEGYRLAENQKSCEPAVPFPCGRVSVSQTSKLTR
Chain of Coagulation factor IX (P00740 227-461 limits assumed): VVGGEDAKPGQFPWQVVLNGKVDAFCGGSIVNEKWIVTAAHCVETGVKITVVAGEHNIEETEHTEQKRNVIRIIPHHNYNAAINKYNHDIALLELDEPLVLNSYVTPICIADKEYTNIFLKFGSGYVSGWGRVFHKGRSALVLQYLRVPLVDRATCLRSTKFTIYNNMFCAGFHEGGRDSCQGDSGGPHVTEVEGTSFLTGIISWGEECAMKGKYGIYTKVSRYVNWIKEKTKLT
Chain of Coagulation factor X (P00742 41-179 limits assumed): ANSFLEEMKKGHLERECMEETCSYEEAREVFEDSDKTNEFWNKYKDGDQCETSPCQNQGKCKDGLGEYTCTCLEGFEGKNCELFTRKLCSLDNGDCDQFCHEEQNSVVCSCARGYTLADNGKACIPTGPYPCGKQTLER
Chain of Coagulation factor X (P00742 235-488 limits assumed): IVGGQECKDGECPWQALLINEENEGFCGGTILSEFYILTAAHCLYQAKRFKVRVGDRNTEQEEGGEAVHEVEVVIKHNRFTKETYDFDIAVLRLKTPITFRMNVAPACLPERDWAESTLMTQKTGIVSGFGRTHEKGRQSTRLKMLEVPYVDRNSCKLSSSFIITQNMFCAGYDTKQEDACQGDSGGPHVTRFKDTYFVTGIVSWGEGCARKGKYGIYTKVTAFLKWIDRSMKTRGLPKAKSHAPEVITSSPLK

As a reminder, the Ki is the equilibrium dissociation constant of an inhibitor or competing ligand from its target. Consider `CC[C@H](C)[C@@H]1NC(=O)[C@H](CCCNC(=N)N)NC(=O)[C@H](Cc2ccccc2)NC(=O)[C@H](NC(=O)[C@H](CCC(N)=O)NC(=O)CNC(=O)CN)CSSC[C@H]2NC(=O)[C@H](C)NC(=O)CNC(=O)[C@@H]3CCCN3C(=O)[C@@H]3CSSC[C@H](C(=O)NCC(=O)N[C@@H](CO)C(=O)NCC(=O)N[C@@H](CO)C(=O)N[C@@H](CC(=O)O)C(=O)O)NC(=O)[C@H](Cc4ccc(O)cc4)NC(=O)CNC(=O)[C@H](CC(N)=O)NC(=O)CNC(=O)[C@H](CCCNC(=N)N)NC(=O)[C@H](CSSC[C@H](NC(=O)[C@H](CCCCN)NC(=O)[C@H](CCCCN)NC(=O)[C@H](Cc4c[nH]c5ccccc45)NC1=O)C(=O)N[C@@H](CCCNC(=N)N)C(=O)N[C@@H](CCCNC(=N)N)C(=O)N[C@@H](CC(=O)O)C(=O)N[C@@H](CO)C(=O)N[C@@H](CC(=O)O)C(=O)N3)NC(=O)[C@H]([C@@H](C)CC)NC2=O`, for which the Ki in assay [1] was more than 100 µM; in assay [2], more than 10 µM; in assay [3], more than 10 µM.
As to `CC[C@H](C)[C@@H]1NC(=O)[C@@H]2CSSC[C@H](NC(=O)[C@H](CCC(N)=O)NC(=O)CNC(=O)[C@@H](N)CCCCN)C(=O)N[C@@H](Cc3ccccc3)C(=O)N[C@@H](CCCNC(=N)N)C(=O)N[C@@H]([C@@H](C)CC)C(=O)N[C@@H](Cc3c[nH]c4ccccc34)C(=O)N[C@@H](CCCCN)C(=O)N[C@@H](CCCCN)C(=O)N[C@H]3CSSC[C@H](NC1=O)C(=O)N[C@@H](CCCNC(=N)N)C(=O)NCC(=O)N[C@@H](CC(N)=O)C(=O)NCC(=O)N[C@@H](Cc1ccc(O)cc1)C(=O)N[C@H](C(=O)NCC(=O)N[C@@H](CO)C(=O)NCC(=O)N[C@@H](CO)C(=O)N[C@@H](CC(=O)O)C(=O)O)CSSC[C@H](NC(=O)[C@H](CC(=O)O)NC(=O)[C@H](CO)NC(=O)[C@H](CC(=O)O)NC(=O)[C@H](CCCNC(=N)N)NC(=O)[C@H](CCCNC(=N)N)NC3=O)C(=O)N1CCC[C@H]1C(=O)NCC(=O)N[C@@H](C)C(=O)N2`, the Ki in assay [4] is 490 nM; in [5], more than 50 µM; in assay [6], more than 100 µM; in assay [7], 4540 nM; in [8], 6240 nM; in assay [9] it was more than 50 µM. The same compound yielded a Ki in [10] of more than 50 µM.
On to `CC[C@H](C)[C@@H]1NC(=O)[C@@H]2CSSC[C@H](NC(=O)[C@@H](NC(=O)CNC(=O)CN)C(C)C)C(=O)N3CCC[C@H]3C(=O)N[C@@H](CCCCN)C(=O)N[C@@H]([C@@H](C)CC)C(=O)N[C@@H](CC(C)C)C(=O)N[C@@H](CCCCN)C(=O)N[C@@H](CCCCN)C(=O)N[C@H]3CSSC[C@H](NC1=O)C(=O)N[C@@H](CCCNC(=N)N)C(=O)NCC(=O)N[C@@H](CC(N)=O)C(=O)NCC(=O)N[C@@H](Cc1ccc(O)cc1)C(=O)N[C@H](C(=O)NCC(=O)N[C@@H](CO)C(=O)NCC(=O)N[C@@H](CO)C(=O)N[C@@H](CC(=O)O)C(=O)O)CSSC[C@H](NC(=O)[C@H](CC(=O)O)NC(=O)[C@H](CO)NC(=O)[C@H](CC(=O)O)NC(=O)[C@H](CCCNC(=N)N)NC(=O)[C@H](CCCNC(=N)N)NC3=O)C(=O)N1CCC[C@H]1C(=O)NCC(=O)N[C@@H](C)C(=O)N2`, for which the Ki in [4] was 750 nM; in assay [5], more than 10 µM; in [6], more than 10 µM; in [7], 28 nM; in [8] it was 0.16 nM; in [9], more than 10 µM. The Ki in assay [10] was more than 10 µM.
Take `CC[C@H](C)[C@@H]1NC(=O)[C@@H]2CSSC[C@H](NC(=O)[C@H](CCC(N)=O)NC(=O)CNC(=O)CN)C(=O)N[C@@H](CO)C(=O)N[C@@H](CCCNC(=N)N)C(=O)N[C@@H]([C@@H](C)CC)C(=O)N[C@@H](CC(C)C)C(=O)N[C@@H](CCCCN)C(=O)N[C@@H](CCCCN)C(=O)N[C@H]3CSSC[C@H](NC1=O)C(=O)N[C@@H](CCCNC(=N)N)C(=O)NCC(=O)N[C@@H](CC(N)=O)C(=O)NCC(=O)N[C@@H](Cc1ccc(O)cc1)C(=O)N[C@H](C(=O)NCC(=O)N[C@@H](CO)C(=O)NCC(=O)N[C@@H](CO)C(=O)N[C@@H](CC(=O)O)C(=O)O)CSSC[C@H](NC(=O)[C@H](CC(=O)O)NC(=O)[C@H](CO)NC(=O)[C@H](CC(=O)O)NC(=O)[C@H](CCCNC(=N)N)NC(=O)[C@H](CCCNC(=N)N)NC3=O)C(=O)N1CCC[C@H]1C(=O)NCC(=O)N[C@@H](C)C(=O)N2`: the Ki is 2160 nM in assay [4]; more than 10 µM in assay [5]; more than 10 µM in assay [6]; more than 10000 nM in assay [7]; more than 10000 nM in assay [8]; more than 10 µM in assay [9]. This compound also had a Ki in assay [10] of more than 10 µM.
On to `CC[C@H](C)[C@@H]1NC(=O)[C@@H]2CSSC[C@H](NC(=O)[C@H](CCC(N)=O)NC(=O)CNC(=O)CN)C(=O)N[C@@H](Cc3ccccc3)C(=O)N[C@@H](CCCNC(=N)N)C(=O)N[C@@H]([C@@H](C)CC)C(=O)N[C@@H](CC(C)C)C(=O)N[C@@H](CCCCN)C(=O)N[C@@H](CCCCN)C(=O)N[C@H]3CSSC[C@H](NC1=O)C(=O)N[C@@H](CCCNC(=N)N)C(=O)NCC(=O)N[C@@H](CC(N)=O)C(=O)NCC(=O)N[C@@H](Cc1ccc(O)cc1)C(=O)N[C@H](C(=O)NCC(=O)N[C@@H](CO)C(=O)NCC(=O)N[C@@H](CO)C(=O)N[C@@H](CC(=O)O)C(=O)O)CSSC[C@H](NC(=O)[C@H](CC(=O)O)NC(=O)[C@H](CO)NC(=O)[C@H](CC(=O)O)NC(=O)[C@H](CCCNC(=N)N)NC(=O)[C@H](CCCNC(=N)N)NC3=O)C(=O)N1CCC[C@H]1C(=O)NCC(=O)N[C@@H](C)C(=O)N2`, for which the Ki in assay [4] was 110 nM; in [5] it was more than 10 µM; in assay [6] it was more than 10 µM; in assay [7], 270 nM; in assay [8], 6.9 nM; in [9], more than 10 µM. The compound further showed a Ki in assay [10] of more than 10 µM.
As for `CC[C@H](C)[C@@H]1NC(=O)[C@@H]2CSSC[C@H](NC(=O)[C@H](CCC(N)=O)NC(=O)CNC(=O)CN)C(=O)N[C@@H](Cc3ccccc3)C(=O)N[C@@H](CCCNC(=N)N)C(=O)N[C@@H]([C@@H](C)CC)C(=O)N[C@@H](Cc3c[nH]c4ccccc34)C(=O)N[C@@H](CCCCN)C(=O)N[C@@H](CCCCN)C(=O)N[C@H]3CSSC[C@H](NC1=O)C(=O)N[C@@H](CCCNC(=N)N)C(=O)NCC(=O)N[C@@H](CC(N)=O)C(=O)NCC(=O)N[C@@H](Cc1ccc(O)cc1)C(=O)N[C@H](C(=O)NCC(=O)N[C@@H](CO)C(=O)NCC(=O)N[C@@H](CO)C(=O)N[C@@H](CC(=O)O)C(=O)O)CSSC[C@H](NC(=O)[C@H](CC(=O)O)NC(=O)[C@H](CO)NC(=O)[C@H](CC(=O)O)NC(=O)[C@H](CCCNC(=N)N)NC(=O)[C@H](CCCNC(=N)N)NC3=O)C(=O)N1CCC[C@H]1C(=O)NCC(=O)N[C@@H](C)C(=O)N2`, the Ki is 510 nM in [4]; more than 10 µM in assay [5]; more than 10 µM in [6]; 1500 nM in assay [7]; 2240 nM in [8]; more than 10 µM in assay [9]. Also, the Ki in assay [10] was more than 10 µM.

The record behind these values is ChEMBL document CHEMBL4428052, “Substrate-Guided Design of Selective FXIIa Inhibitors Based on the Plant-Derived Momordica cochinchinensis Trypsin Inhibitor-II (MCoTI-II) Scaffold” (J Med Chem, 2016).
